The values below come from BindingDB's records for doi:10.7270/Q2SX6BMJ (Burnham Center for Chemical Genomics, 2008).

What is called IC50 is the concentration at which inhibition is half-maximal. Low readings indicate greater potency in that assay, high ones weaker potency in that assay.

The target of the experiment is T1, Alkaline phosphatase, tissue-nonspecific isozyme (Homo sapiens, UniProt P05186).
T1 sequence (P05186 whole entry): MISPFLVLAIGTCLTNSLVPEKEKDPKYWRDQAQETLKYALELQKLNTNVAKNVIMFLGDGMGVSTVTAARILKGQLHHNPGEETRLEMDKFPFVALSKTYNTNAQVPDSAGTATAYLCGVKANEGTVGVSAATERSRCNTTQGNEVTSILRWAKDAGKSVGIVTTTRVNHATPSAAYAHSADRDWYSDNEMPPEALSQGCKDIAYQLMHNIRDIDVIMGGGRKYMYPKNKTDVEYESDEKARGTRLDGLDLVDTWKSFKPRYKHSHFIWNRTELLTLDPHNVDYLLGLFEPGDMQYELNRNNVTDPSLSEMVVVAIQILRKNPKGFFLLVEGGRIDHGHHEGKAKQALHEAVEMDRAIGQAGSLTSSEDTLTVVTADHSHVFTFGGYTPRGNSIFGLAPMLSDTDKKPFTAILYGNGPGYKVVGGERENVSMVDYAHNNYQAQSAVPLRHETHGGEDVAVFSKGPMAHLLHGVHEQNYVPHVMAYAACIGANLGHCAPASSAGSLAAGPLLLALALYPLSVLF
Nature of the experiment: inhibition of tissue-nonspecific alkaline phosphatase – biochemical, luminescent (AID 518).
As for `COC(=O)c1cc(-c2ccc(Br)cc2)n[nH]1`, the IC50 worked out at 1.14 µM.
For `O=C(Nc1nnc(C2CCCCC2)[nH]1)C1CCCCC1` the value was more than 100 µM; for `CCOC(=O)N1CCN(C(=O)c2ccc(CS(=O)(=O)c3ccccc3OC)o2)CC1` [4-[5-[(2-methoxyphenyl)sulfonylmethyl]-2-furoyl]piperazine-1-carboxylic acid ethyl ester], more than 100 µM; for `CC1(C)Cc2c(sc3nc4n(c(=N)c23)CCCCC4)CO1` [SMR000039131], 9.5 µM.
For `CCCCNC(=O)c1ccc2nc(-c3ccco3)c(-c3ccco3)nc2c1` [MLS000119995] the value was more than 100 µM; for `c1ccc(-c2[nH]nc3ccccc23)cc1`, 3.72 µM; for `CC(=N)C(C#N)C(=O)CSc1nnc(-c2ccccc2Br)[nH]1` (configuration not stated), 1.73 µM.
For `Cc1ccc(-n2ncc3c2ncn2c(C)nnc32)cc1C` [MLS000082333] the value was 7.92 µM; for `O=C(Cn1c(-c2ccccc2)noc1=O)Nc1ccc(N2CCCCCC2)cc1` [MLS000027331], more than 100 µM; for `Brc1ccc(-c2nnc3sc(CNCc4ccc5c(c4)OCO5)cn23)cc1` [1-(1,3-benzodioxol-5-yl)-N-[[3-(4-bromophenyl)-6-thiazolo[2,3-c][1,2,4]triazolyl]methyl]methanamine], more than 100 µM.
Compound `CCCSc1nnc(NC(C)=O)[nH]1` [MLS000114796] had a half-inhibitory concentration (IC50) of 0.82 µM. This counts as sub-micromolar.
Regarding `COc1ccc2c(c1)CCc1c-2n[nH]c1C(=O)O` [7-methoxy-4,5-dihydro-2H-benzo[g]indazole-3-carboxylic acid], the midpoint of inhibition, the IC50, lay at 2.62 µM.
For `COc1ccc(CNC(=O)C(C)NC(=O)c2cc3ccccc3o2)cc1` (configuration not stated) [MLS000047147] the value was more than 100 µM.
In turn, `O=c1c(=Cc2ccco2)sc2nc(-c3ccccc3Br)nn12` [2-(2-bromophenyl)-5-(2-furanylmethylidene)-6-thiazolo[3,2-b][1,2,4]triazolone] yielded an IC50 of more than 100 µM.
For `CCc1ccc(OCc2nc(-c3ccccn3)no2)c(Br)c1` [2-{5-[(2-bromo-4-ethylphenoxy)methyl]-1,2,4-oxadiazol-3-yl}pyridine] the value was more than 100 µM; for `OCc1nnn(-c2cccc(C(F)(F)F)c2)c1CO` [MLS000090420], more than 100 µM; for `O=C(O)c1cc(-c2ccc(Cl)cc2)n[nH]1`, 2.67 µM.
As for `COCc1n[nH]c2c1C(c1cc(OC)c(O)c(OC)c1)C(C#N)C(=N)O2` (configuration not stated) [6-azanyl-4-(3,5-dimethoxy-4-oxidanyl-phenyl)-3-(methoxymethyl)-2,4-dihydropyrano[2,3-c]pyrazole-5-carbonitrile], the IC50 was 5.25 µM.
For `Cn1ncc2c1ncn1nc(CCc3ccccc3)nc21` [MLS000040759] the value was 15.8 µM; for `Cc1ccc(-n2c(Cc3cccn3C)nnc2SCC(=O)Nc2nnc(C)s2)cc1` [2-({4-(4-methylphenyl)-5-[(1-methyl-1H-pyrrol-2-yl)methyl]-4H-1,2,4-triazol-3-yl}thio)-N-(5-methyl-1,3,4-thiadiazol-2-yl)acetamide], more than 100 µM.
For `COc1ccc(-c2[nH]nc3oc(=O)cc(C)c23)cc1` the value was 1.35 µM.
For `Oc1c2c(c(O)n1-c1nnc(Cc3ccccc3)[nH]1)CC=CC2` [MLS000100008] the value was 0.33 µM; for `Cc1ccc2c(c1)-c1c(cnn1CC(=O)N1CCCN(Cc3ccccc3F)C1)CO2` [1-[3-(2-fluorobenzyl)hexahydropyrimidin-1-yl]-2-(8-methyl-4H-chromeno[4,3-c]pyrazol-1-yl)ethanone], more than 100 µM.
In the case of `CCCc1nc2c3cnn(-c4cccc(Cl)c4)c3ncn2n1` [MLS000083263], the half-maximal inhibitory concentration (IC50) was more than 100 µM.
As to `Cn1c(NC(=O)CC(C)(C)C)cc(=O)n(C)c1=O` [MLS000103608], the half-maximal inhibitory concentration (IC50) was more than 100 µM.
For `COc1cc(CSc2nnc[nH]2)c(OC)cc1CSc1nnc[nH]1` [5-[[2,5-dimethoxy-4-[(1H-1,2,4-triazol-5-ylthio)methyl]phenyl]methylthio]-1H-1,2,4-triazole] the value was 1.66 µM.
For `CCOC(=O)c1sc(NC(=O)CSc2nnc(-c3ccccc3)[nH]2)c(C#N)c1C` [ethyl 4-cyano-3-methyl-5-[[2-[(5-phenyl-1H-1,2,4-triazol-3-yl)sulfanyl]acetyl]amino]thiophene-2-carboxylate] the value was 5.39 µM; for `COC(=O)c1cc(-c2ccccc2)n[nH]1` [methyl 3-phenyl-1H-pyrazole-5-carboxylate], 1.24 µM; for `CC1(C)CC(=O)c2c(n[nH]c2Cc2ccccc2)C1`, 1.83 µM.
`O=C(C1CCN(S(=O)(=O)N2CCC3(CC2)OCCO3)CC1)N1CCN(Cc2ccccc2)CC1` [(4-benzylpiperazin-1-yl)-[1-(1,4-dioxa-8-azaspiro[4.5]decan-8-ylsulfonyl)piperidin-4-yl]methanone] returned a concentration for half-maximal inhibition (IC50) of more than 100 µM.
For `Cc1ccsc1C=c1sc2ncnn2c1=O` [5-[(3-methyl-2-thienyl)methylene][1,3]thiazolo[3,2-b][1,2,4]triazol-6(5H)-one] the value was 11.7 µM; for `c1ccc(-n2ncc3c2ncn2cnnc32)cc1` [MLS000048783], more than 100 µM; for `CCN(CC)S(=O)(=O)c1ccc2c(c1)c(=O)c(C(=O)N1CCOCC1)cn2C` [MLS000092367], more than 100 µM.
For `Cc1cc(NC(=O)c2noc3c2CCc2ccccc2-3)n(-c2ccccc2)n1` [MLS000116423] the value was more than 100 µM; for `COC(=O)c1cc(-c2c[nH]c3ccccc23)[nH]n1` [SMR000079439], 1.17 µM.
Compound `O=C(Cc1ccc(-n2cccc2)cc1)N1CCN(c2ccccc2F)CC1` [1-(2-fluorophenyl)-4-{[4-(1H-pyrrol-1-yl)phenyl]acetyl}piperazine] displayed an IC50 of more than 100 µM.
Consider `Cc1cc(=O)oc2n[nH]c(-c3ccccc3)c12` [MLS-0013971.0001], for which the IC50 was 1.23 µM. This counts as single-digit micromolar.
